# Measurements from the OPERA property sets (Mansouri et al. 2018).
Structure (SMILES),melting point,boiling point,log10 vapour pressure (mmHg),ready biodegradability,log10 Koc (L/kg),log10 Henry constant (atm·m³/mol),log10 Koa,log10 biodegradation half-life (days)
CCOC(=O)CCC(=O)CC1(O)C2(Cl)C3(Cl)C4(Cl)C(Cl)(Cl)C5(Cl)C3(Cl)C1(Cl)C5(Cl)C42Cl (stereo not drawn),91 °C,,,,,,,
O=COCCCc1ccccc1,,250 °C,,,,,,
CSc1ccc(N)cc1,,272 °C,,,,,,
COc1ccc(Br)cc1OC,,254 °C,,,,,,
CC(C)F,,-10 °C,,,,,,
CCOP(=S)(OCC)Oc1cnc2ccccc2n1,31.5 °C,,-5.58,,,,,
CN(C)Cc1ccccc1,,181 °C,,not readily biodegradable,,,,
CCn1c(C)nc2ccccc21,51 °C,296 °C,,,,,,
CCCCCCC[N+](=O)[O-],,194 °C,,,,,,
Cc1c(N)cc([N+](=O)[O-])cc1[N+](=O)[O-],174 °C,,,,,,,
CCOc1cccc(C)c1,,192 °C,,,,,,
CCOC(=O)C(=O)OCC,-40.6 °C,186 °C,-0.383,readily biodegradable,,,,
O=C(OCC(=O)N1CCCCCC1)c1ccccc1,108 °C,,,,,,,
C=CCC(O)CC=C,,151 °C,,,,,,
CC(C)(C)CBr,,106 °C,,,,,,
CCCCCCCCC(C)=O,14 °C,210 °C,-0.571,readily biodegradable,,,,
O=[N+]([O-])c1ccc(Oc2ccc(C(F)(F)F)cc2Cl)cc1,68 °C,,,,,,,
COCCCNc1nc(NC(C)C)nc(SC)n1,,,-6.55,,,,,
O=C(Cl)C(F)(F)C(F)(F)C(F)(F)C(F)(F)C(F)(F)C(F)(F)C(F)(F)F,,131 °C,,,,,,
Cn1cccc1,,115 °C,1.33,readily biodegradable,,,,
CCCN(CCOc1c(Cl)cc(Cl)cc1Cl)C(=O)n1ccnc1,48 °C,,-5.95,,2.7,,,

Structure (SMILES),melting point,boiling point,log10 vapour pressure (mmHg),ready biodegradability,log10 Koc (L/kg),log10 Henry constant (atm·m³/mol),log10 Koa,log10 biodegradation half-life (days)
CCCc1ccc(C(=O)O)cc1,143 °C,,,,,,,
Clc1ccc(-c2ccc(Cl)c(Cl)c2)c(Cl)c1,,,-4.33,,,-3.92,9.02,
CCCC(Br)CC (stereo not drawn),,142 °C,,,,,,
CC1=CCc2ccccc21,,198 °C,,,,,,0.477
Cc1ccc(-c2nc3ccc(C)cn3c2CC(=O)N(C)C)cc1,196 °C,,,,,,,
CCC(C)=NNc1ccc([N+](=O)[O-])cc1[N+](=O)[O-],117 °C,,,,,,,
CC(C)(O)CCO,,202 °C,,,,,,
CCCCCCCCCCCCCCCCCC(=O)O,68.8 °C,383 °C,-6.14,readily biodegradable,,,,
CCCCCCCC=O,-23 °C,171 °C,0.0719,,,-3.29,5.36,
CCC(C)C(C)(C)C(C)C (stereo not drawn),,165 °C,,,,,,
Clc1ccc(-c2c(Cl)ccc(Cl)c2Cl)cc1Cl,,,,,,,9.06,
CC(C)(C)CC(=O)OCC(=O)[C@@]1(O)CC[C@H]2[C@@H]3CCC4=CC(=O)CC[C@]4(C)[C@H]3[C@@H](O)C[C@@]21C,168 °C,,,,,,,
OCCCCCCCCl,11 °C,,,,,,,
CC(CC1CCCCC1)CC1CCCCC1,0.6 °C,295 °C,,,,,,
CC(=O)CC(C)C(C)=O (stereo not drawn),,196 °C,,,,,,
O=C1OC(=O)C(F)(F)C(F)(F)C1(F)F,,72 °C,,,,,,
CC(=O)C(=O)c1ccccc1,,222 °C,,,,,,
O=C(O)CCC(=O)c1ccc(-c2ccccc2)cc1,186 °C,,,,,,,
BrCC1CO1 (stereo not drawn),-40 °C,135 °C,,,,,,
NCCCCCCCCN,52 °C,225 °C,,readily biodegradable,,,,
CC(C)Nc1nc(N)nc(Cl)n1,133 °C,,,,,,,

Structure (SMILES),melting point,boiling point,log10 vapour pressure (mmHg),ready biodegradability,log10 Koc (L/kg),log10 Henry constant (atm·m³/mol),log10 Koa,log10 biodegradation half-life (days)
CC(CCl)CCl,,136 °C,,,,,,
NC(=O)c1ccc(N)nc1,246 °C,,,,,,,
CCCC(O)CO (stereo not drawn),104 °C,206 °C,,,,,,
Cl.Nc1ccc(N=Nc2ccccc2)c(N)c1,118 °C,,,,,,,
N#Cc1ccccc1O,98 °C,,,,,,,
ON=C1CCCC1,57.8 °C,196 °C,,,,,,
COC(=O)[C@@H](C)N(C(=O)c1ccccc1)c1ccc(F)c(Cl)c1,,,-5.12,,,,,
CCSCCO,-100 °C,184 °C,,,,,,
Cc1ccc(C)s1,-62.6 °C,136 °C,0.994,,,,,
CCOC(=O)c1cc2ccccc2o1,30.5 °C,276 °C,,,,,,
O=C(OCC(COC(=O)c1ccccc1)OC(=O)c1ccccc1)c1ccccc1,76 °C,,,,,,,
Nc1ccc([N+](=O)[O-])c2c1C(=O)c1c(Cl)ccc(Cl)c1C2=O,307 °C,,-12.4,,,,,
CCOC(C)CC (stereo not drawn),,81 °C,,,,,,
CC(C)C(=O)OCC(C)(C)C(O)C(C)C (stereo not drawn),,,,readily biodegradable,,,,
COc1ccc(CCc2cc(OC)c3ccccc3n2)cc1OC,116 °C,,,,,,,
OCC(Br)(Br)Br,81 °C,,,,,,,
OCc1ccco1,-14.6 °C,171 °C,-0.215,readily biodegradable,,,,
CCOP(=S)(OCC)SCCSCC,-25 °C,,-4.01,,3.22,,,
CCc1cc(C)ccc1C,-53.7 °C,187 °C,-0.0272,,,,,0.477
